Results on 5 molecules are retold here after patent US8680058B2, “Selectively targeted antimicrobial peptides and the use thereof” (priority 2006, dated 2014).

In experiment [1] the test system is P. aeruginosa ATCC 15692. The experiment in a line: Effect of rhDNase on STAMP killing in concentrated sputum. In kind it is cell-based, Pseudomonas aeruginosa. As for the experimental part:
3.4 Effect of rhDNase on STAMP activity in sputum. Recombinant human DNase, which is commonly used during treatment of CF to reduce sputum viscosity and promote airway clearing (Fuchs et al., 1994), was added to pooled, concentrated sputum samples to determine if G10KHc/PMSF and G10KHc-D activity could be improved during co-treatment under these conditions. To determine the effect of rhDNase (Genentech, San Francisco, Calif.) on STAMP killing ability, individual sputum samples were diluted 1:2 in 100 μg/mL rhDNase, briefly vortexed, and incubated at room temperature for 10 min. Treated samples were then pooled, followed by 1 mM PMSF addition, where appropriate, and incubation for 1 h. 25 μM G10KHc or G10KHc-D was then added with ˜5×10^6 cfu/mL ATCC 15692 and incubated 4 h. Survivors were then rescued and quantitated by plating as described above.

Experiment [2] deals with P. aeruginosa ATCC 15692. The experiment is described as follows: Killing of exogenous P. aeruginosa in pooled CF sputum. In kind it is cell-based, Pseudomonas aeruginosa. As for the experimental part: 3.2 Activity and stability of G10KHc and G10KHc-D in sputum. Determination of peptide antimicrobial effects or activity in sputum was investigated in a similar manner to previous reports (Sajjan et al., 2001). To assay the activity of G10KHc and G10KHc-D against exogenous P. aeruginosa in sputum, collected sputum samples were diluted 1:10 in 10 mM PBS (PBS) and pooled (referred to as pooled sputum). In 100 μL pooled sputum, ATCC 15692 was added to a final concentration of ˜5×10^6 cfu/mL prior to 25 μM peptide addition.
In samples examining the effect of protease inhibitors on peptide activity, pooled sputum samples were pre-treated for 30 min with 1 mM protease inhibitor, either phenylmethylsulphonylfluoride (PMSF), beta-mercaptoethanol (BME), or ethylenediaminetetraacetic acid (EDTA), (all acquired from Sigma-Aldrich), followed by addition of 25 μM G10KHc and ATCC 15692 (˜5×10^6 cfu/mL).
Bacteria surviving peptide treatment were rescued by dilution (1:50) in growth media at 4 h and kept on ice before appropriate dilution and plating on LB agar supplemented with ampicillin (25 μg/mL). After overnight incubation at 37° C., colonies were counted and the surviving cfu/mL quantitated. 100 cfu/mL was considered as the countable limit for all plating procedures. […]

A further experiment has as its system S. gordonii. In kind it is cell-based, S. gordonii Challis (DL1). The protocol:
(§1) 1.3 Determination of antimicrobial activity. The general antimicrobial activity of peptides against planktonic bacteria was determined by a MIC assay in TH broth (all oral streptococci) (Qi et al., 2005).
(§2) S. mutans, S. gordonii Challis (DL1), and S. sanguinis NY101 strains were grown in Todd Hewitt (TH, Fisher) broth medium at 37° C. under anaerobic conditions (80% N2, 10% CO2, and 10% H2). S. mutans strains UA159 (Ajdic et al., 2002), ATCC 25175, and T8 (Rogers, 1975), are wild-type clinical isolates, while comD is a knockout mutant that was constructed previously from the wild-type UA140 background (Qi et al., 2005). Luciferase expressing S. mutans strain JM11 was constructed from UA140 as described (Merritt et al., 2005). Exponentially growing bacterial cells were diluted to ˜1×10^5 cfu/mL in TH and placed into 96-well plates (Fisher). Peptides were then serially diluted and added to the bacteria.

In the next experiment the test system is other oral streptococci. The experiment is described as follows: Binding of fluorescently labeled peptides to other oral streptococci. Particulars: fluorescently labeled peptide. An excerpt: (§3) 1.2 Fluorescent labeling of peptides and fluorescence microscopy. Aliquots of CSPC16 (SEQ ID NO 2), CSP-fragment peptides (Table 2), and C16G2 (SEQ ID NO 4) were labeled with carboxyfluorescein (Sigma) as described previously (Eckert et al., 2006). After peptide cleavage but prior to the bacterial labeling assay, fluorescence intensity per μM peptide was checked fluorimetrically (λex=488 nm, λem=520 nm VersaFluor, BioRad) and found to be relatively similar (data not shown). To evaluate the level of peptide binding to bacteria, streptococci from an overnight culture (OD600 of 0.7-1.0) were washed with phosphate buffered saline (1×PBS), diluted 1:2 into 1×PBS, and exposed to peptide (16 μM) for 5 min at 25° C. After incubation with peptide, unbound agent was removed from the bacteria by three cycles of centrifugation (5 min, 16,000×g) and resuspension in 1×PBS. Labeling of oral streptococci was evaluated using brightfield and fluorescence microscopy (Nikon E400) at a 40× magnification. The digital images utilized for the semi-quantitative binding assessment were acquired with the factory-supplied software (SPOT, Diagnostics).

A further experiment relates to S. sanguinis. In kind it is cell-based, S. sanguinis NY101. The protocol: as §1, §2
For the next experiment, the system named is S. mutans. In kind it is cell-based, Streptococcus mutans. As for the experimental part: as §1, §2
The subject of a further experiment is S. gordonii biofilms. The experiment in a line: Single-species biofilm regrowth after peptide exposure, S. gordonii. Particulars: 25 μM peptide, 1 min exposure. In kind it is cell-based. The protocol: (§4) 1.5 Examination of antimicrobial activity against single-species biofilms. To initiate biofilm formation, ˜1×10^7 bacteria per well (from overnight cultures) were seeded in TH medium (100 μL) to a 96-well flat-bottom plate. For all streptococci except S. mutans, the medium was supplemented with 0.5% (w/v) mannose and glucose. S. mutans UA159 biofilms were grown with 0.5% (w/v) sucrose. Plates were then centrifuged briefly to pellet the cells, and bacteria were incubated for 3-4 hours at 37° C. for biofilm formation. After incubation, the supernatant was carefully removed and biofilms were treated with 25 μM peptide in 1×PBS or 1×PBS alone for 1 min. The peptide solution was then removed and 100 μL TH was added to further dilute any remaining peptide. To minimize biofilm loss, cells were briefly centrifuged after TH addition, after which the supernatants were removed and fresh medium plus appropriate sugars were returned. Cells were then incubated anaerobically at 37° C. and biofilm growth was monitored over time by measuring absorbance at OD600 with a microplate spectrophotometer (Benchmark Plus, BioRad).

Another experiment deals with S. mutans UA159 and comD. The experiment is described as follows: Binding of fluorescently labeled peptides to S. mutans (fluorescence microscopy). Particulars: fluorescently labeled peptide. On the set-up: species or system Streptococcus mutans.
From the text: To determine whether there was a region within the CSPC16 sequence that was responsible for S. mutans-specific binding, we synthesized a series of fluorescently labeled CSPC16 fragments, and analyzed their ability to bind to S. mutans. The following strategies were utilized in dissecting the CSPC16 sequence (Table 2): First, a series of fragments were constructed by generating deletions of 3 or 4 amino acids, from the N to C terminus, across the CSPC16 sequence (C16-1 to C16-5). Peptides lacking larger portions of the C or N termini of CSPC16 were also synthesized (C16-6 to C16-12). Additionally, peptides with Arg to […] (a positive to negative change in charge) (C16-4) or Phe to Gly substitutions (for a general decrease in hydrophobicity) (C16-3), as well as peptides representing a 4-residue Ala scan of the C16 sequence were constructed (C 16-15 to C16-18). […] These peptides include C16 (SEQ ID NO 1), C16-3 (SEQ ID NO 39), C16-4 (SEQ ID NO 40), C16-5 (SEQ ID NO 41), C16-6 (SEQ ID NO 42), C16-11 (SEQ ID NO 47), C16-12 (SEQ ID NO 5), C16-16 (SEQ ID NO 51), C16-17 (SEQ ID NO 52), and C16-18 (SEQ ID NO 53).
as §3

The subject of a further experiment is S. mutans biofilms. The experiment in a line: Single-species biofilm regrowth after peptide exposure, S. mutans. Type of experiment: cell-based, Streptococcus mutans. Particulars: 25 μM peptide, 1 min exposure. As for the experimental part: as §4
The test system of the next experiment is S. sanguinis biofilms. The experiment is described as follows: Single-species biofilm regrowth after peptide exposure, S. sanguinis. In kind it is cell-based. Particulars: 25 μM peptide, 1 min exposure. As for the experimental part:
as §4

Entries after “also recorded” stand apart in the source; their conditions may differ. Like-named read-outs stand apart in the source and are kept apart here. Non-standard residues stand in square brackets, D forms with d. Residues, ends and D or L forms follow the SMILES beside them. No end group written: not given here.

As for `CC[C@@H](C)[C@@H](NC(=O)CNC(=O)[C@@H](CCCCN)NC(=O)[C@@H](CCCNC(=N)N)NC(=O)[C@H](NC(=O)[C@H](NC(=O)[C@@H](CCCNC(=N)N)NC(=O)[C@@H](CCCNC(=N)N)NC(=O)[C@@H](CC(C)C)NC(=O)[C@@H](CC(N)=O)NC(=O)[C@@H](CCCCN)NC(=O)[C@@H](CO)NC(=O)CNC(=O)CNC(=O)[C@@H](CO)NC(=O)CNC(=O)CNC(=O)[C@@H](Cc1c[nH]cn1)NC(=O)[C@@H](CCCCN)NC(=O)[C@@H](CCCNC(=N)N)NC(=O)[C@@H](Cc1c[nH]cn1)NC(=O)[C@@H](CCCCN)NC(=O)[C@@H](CCCNC(=N)N)NC(=O)[C@@H](Cc1c[nH]cn1)NC(=O)[C@@H](CCCCN)NC(=O)[C@@H](CCCNC(=N)N)NC(=O)[C@@H](Cc1c[nH]cn1)NC(=O)[C@@H](CCCCN)NC(=O)[C@H](N)CCCCN)[C@H](C)CC)[C@H](C)CC)C(=O)N[C@H](Cc1c[nH]cn1)C(=O)N[C@@H](C(=O)N[C@@H](C(=O)N[C@H](CCCCN)C(=O)N[C@H](CCCCN)C(=O)N[C@H](Cc1ccc(O)cc1)C(=O)NCC(=O)O)[C@H](C)CC)[C@H](C)CC` [Peptide G10KHc-D] (H-[dK][dK][dH][dR][dK][dH][dR][dK][dH][dR][dK][dH]GG[dS]GG[dS][dK][dN][dL][dR][dR][dI][dI][dR][dK]G[dI][dH][dI][dI][dK][dK][dY]G-OH; N-terminus and C-terminus assumed), in the experiment with P. aeruginosa ATCC 15692 [1] (concentrated sputum not treated with rhDNase), the “recovered cfu/mL as percent of untreated control” value was roughly 30%. The “reduction of recovered P. aeruginosa compared to untreated samples” value in the experiment with P. aeruginosa ATCC 15692 [2] (25 μM, 4 h, no inhibitor) is given as 3-4 log10.
The term MIC denotes the smallest concentration in the dilution series that meets the test's criterion for growth inhibition. Low readings indicate greater potency, high ones weaker potency. Turning to TFFRLFNR-OH [CSPM8, TFFRLFNR], the MIC against S. gordonii, in the experiment on S. sanguinis, against S. mutans (S. mutans 25175), against S. mutans (S. mutans T8), against S. mutans (S. mutans UA159) and in the experiment with S. mutans (S. mutans comD) was greater than 60 µM throughout. In the experiment on other oral streptococci, the “binding to other oral streptococci” value is “little or no binding”.
Regarding “TFFRLFNRSFTQALGK-OH [CSPC16, TFFRLFNRSFTQALGK]”, the MIC in the experiment on S. gordonii, in the experiment on S. sanguinis, with S. mutans (S. mutans 25175), in the experiment on S. mutans (S. mutans T8), in the experiment on S. mutans (S. mutans UA159) and against S. mutans (S. mutans comD) was greater than 60 µM each time. In addition, the “binding to other oral streptococci” value with other oral streptococci is listed as “not to other oral streptococci”. Besides, the “biofilm re-growth after treatment (OD600)” value in the experiment with S. gordonii biofilms was “grew similarly to untreated biofilms”; in the experiment on S. mutans biofilms it was “unaffected”; with S. sanguinis biofilms it was “grew similarly to untreated biofilms”. The “binding to S. mutans (in words)” value with S. mutans UA159 and comD was “detected as bound; also recorded: could specifically bind to S. mutans”.
As for `O=S(=O)(F)Cc1ccccc1` [PMSF, phenylmethylsulphonylfluoride, reference compound], the “effect of inhibitor alone on P. aeruginosa viability” value in the experiment on P. aeruginosa ATCC 15692 [2] (1 mM) was “only a small affect on P. aeruginosa viability”.

B1: rhDNase: Recombinant human DNase (Genentech), sputum mucolytic agent (protein, UniProt P24855 23-282, looked up)
Deoxyribonuclease-1: LKIAAFNIQTFGETKMSNATLVSYIVQILSRYDIALVQEVRDSHLTAVGKLLDNLNQDAPDTYHYVVSEPLGRNSYKERYLFVYRPDQVSAVDSYYYDDGCEPCGNDTFNREPAIVRFFSRFTEVREFAIVPLHAAPGDAVAEIDALYDVYLDVQEKWGLEDVMLMGDFNAGCSYVRPSQWSSIRLWTSPTFQWLIPDSADTTATPTHCAYDRIVVAGMLLRGAVVPDSALPFNFQAAYGLSDQLAQAISDHYPVEVMLK
Regarding B1, the “effect of rhDNase treatment alone on P. aeruginosa” value in the experiment with P. aeruginosa ATCC 15692 [1] (100 μg/mL rhDNase) was “not affected”.
